Where “and” joins values, the source holds several entries; their conditions need not be identical. Equal entries are not always repeated.
Columns and labels:
MRC-5 cells = test: MTT cytotoxicity assay, MRC-5 normal fibroblasts; format: cell-based, human; conditions: for IC50: MTT, 72 h after treatment, mean ± SEM, healthy cell line; for Selectivity index, MRC-5: MRC-5 / MRC-5 (reference value), in brackets
HT-29 cells [1] = test: MTT cytotoxicity assay, HT-29; format: cell-based, human; conditions: for IC50: Homo sapiens, HT-29, MTT, 72 h after treatment, mean ± SEM; for Selectivity index (IC50 normal cell line/IC50 cancer cell lines), HT-29: MRC-5 / HT-29, in brackets
Method: (§1) SW620 cells were cultured in Dulbecco’s Modified Eagle’s medium (DMEM, Sigma-Aldrich Chemie GmbH, Steinheim, Germany) and supplemented in the same manner as the previously mentioned cell lines. Cells were grown in cell culture flasks T25 (Sarstedt AG & Co., Nümbrecht, Germany) at appropriate cell densities in the culture medium prior to exposure to treatments. Stock solutions of each compound, prepared in DMSO, were diluted in the culture medium to obtain the appropriate final concentrations.
(§2) The viability of the control and cells treated with the tested compounds was determined by MTT assay. Cells were seeded in 96-well plates at a density of 2000 cells/well, allowed to attach overnight, and then treated with rising concentrations of testing compounds. The ability of viable cells to reduce 3-(4,5-dimethylthiazol-2-yl)-2,5-diphenyltetrazolium bromide into blue-purple formazan crystals, was measured 72 h after the treatments. Namely, l mg/mL of MTT reagent (Sigma-Aldrich Chemie GmbH, Steinheim, Germany) was added to each well and incubated for an additional 4 h. Finally, upon removal of the medium containing MTT, 200 µL of DMSO was added to each well.

HCT 116 cells = test: MTT cytotoxicity assay, HCT 116; format: cell-based, human; conditions: for IC50: Homo sapiens, HCT-116, MTT, 72 h after treatment, mean ± SEM; for Selectivity index (IC50 normal cell line/IC50 cancer cell lines), HCT 116: MRC-5 / HCT 116, in brackets
Method: as §1, §2

SW620 cells [2] = conditions: cited from earlier work
BxPC-3 cells = test: MTT cytotoxicity assay, BxPC-3; format: cell-based, human; conditions: for IC50: MTT, 72 h after treatment, mean ± SEM; for Selectivity index (IC50 normal cell line/IC50 cancer cell lines), BxPC-3: MRC-5 / BxPC-3, in brackets
Method: as §1, §2

SW620 cells [3] = test: Wound-healing assay; format: cell-based, human; conditions: 25 μM; for Relative Wound Closure (%) 24 h: SW620, 24 h relative to T0, mean ± SEM, control 17.87 ± 3.48; for Relative Wound Closure (%) 48 h: SW620, 48 h relative to T0, mean ± SEM, control 24.51 ± 1.39
Method: The migratory potential of SW620 cells (human colon carcinoma cell line) was evaluated by a wound-healing assay. Cells were seeded in density of 300,000 cells per well in 24-well tissue culture microplates and grown for 24 h in DMEM medium supplemented with 10% FBS, penicillin/streptomycin and L-glutamine at 37 °C in a humidified atmosphere containing 5% CO2. Upon reaching confluence, a uniform wound was scratched into a monolayer of each well with a sterile plastic 200 μL micropipette tip. After wounding, the medium was replaced and cells were further treated with 25 μM of compounds 1, 2, 3, and 5 for 24 h and 48 h. Wound closure was monitored by imaging cells at 4× magnification using the ImageXpress® Pico Automated Cell Imaging System (Molecular Devices®, San Jose, CA, USA) immediately (T0), and at 24 h (T24) and 48 h (T48) after wounding. The captured images were analyzed by ImageJ software v. 1.52p (U.S. National Institutes of Health, Bethesda, MD, USA) to measure the degree of closure of the wounded area. Independent experiments were performed three times.

SW620 cells [4] = test: Cytotoxicity in SW620 cells after 24 h treatment (Table S2); format: cell-based; conditions: Homo sapiens, SW-620, read-out: IC50 (µM) following 24h treatment in SW620 cells
in vivo = conditions: in vivo
Method: Wild-type (AB) zebrafish embryos, kindly provided by Dr. Ana Cvejić (Wellcome Trust Sanger Institute, Cambridge, UK), were raised to adult stage in a temperature- and light-controlled zebrafish facility at 28 °C and a standard 14:10 h light–dark photoperiod. Fish were fed with commercial dry food (SDS200 and SDS300 granular food; Special Diet Services, Essex; UK and TetraMinTM flakes; Tetra Melle, Germany) twice a day, and with Artemia nauplii daily.
Embryos produced by pairwise mating were washed to remove debris, distributed at 10 per well into 24-well plates containing 1 mL of E3 medium (5 mM NaCl, 0.17 mM KCl, 0.33 mM CaCl2 and 0.33 mM MgSO4 in distilled water) and maintained at 28 °C. […] Dead embryos were recorded and discarded every 24 h. […] Experiments were performed in triplicate using 30 embryos for each concentration. At 120 hpf, embryos were anesthetized by the addition of 0.1% (w/v) tricaine solution (Sigma-Aldrich, St. Louis, MO, USA), photographed, and killed by freezing at −20 °C for ≥24 h.

HT-29 cells [5] = test: SRB assay, compound plus γ-radiation, HT-29; format: cell-based, human; conditions: IC50 concentration 24 h before 2 Gy γ-radiation, SRB 72 h after irradiation
Method: In the experiments involving irradiation, cells were irradiated at room temperature, in the vertical position with the cell monolayer facing ^60Co γ-rays (CIRUS-Cis Biointernational). The irradiation of samples was performed in Vinča Institute of Nuclear Sciences, Belgrade, Serbia. In all experiments, a clinically relevant radiation dose of 2 Gy with the dose rate of ~1 Gy/min was applied.
For the evaluation of cell viability after treatments with radiation as well as after combined treatments, a sulforhodamine B (SRB) protein binding assay was used. This assay is based on the staining of cellular proteins. Maintaining conditions were identical to that of MTT assay. The cells were pretreated with IC50 concentrations of tested compounds for 24 h before irradiations. Following the 72 h post-irradiation incubation time under standard conditions (5% CO2, 37 °C) cells were fixed by protein precipitation with 10% trichloroacetic acid (TCA) at 4 °C for 1 h. Plates were rinsed with distillated water and stained with 0.4% SRB (Sigma-Aldrich Chemie GmbH, Steinheim, Germany) in 1% acetic acid, for 15 min at room temperature. Excess stain was removed by washing the wells in 1% acetic acid. After being rinsed, microwell plates were air dried until no staining moisture was visible. Bound dye was dissolved in 10 mM unbuffered Tris base (pH 10.5) for 5 min on a gyratory shaker. The absorbance of each well was measured using a microplate reader (Wallac VICTOR2 1420 Multilabel counter, PerkinElmer, Turku, Finland) at a test wavelength of 550 nm.

Row | SMILES | IC50 (MRC-5 cells; Homo sapiens, MRC5, 72 h) [µM] | Selectivity index, MRC-5 (MRC-5 cells) | IC50 (HT-29 cells [1]) [µM] | Selectivity index (IC50 normal cell line/IC50 cancer cell lines), HT-29 (HT-29 cells [1]) | IC50 (HCT 116 cells) [µM] | Selectivity index (IC50 normal cell line/IC50 cancer cell lines), HCT 116 (HCT 116 cells) | migratory ability of SW620 cells (SW620 cells [2]; 400 μM, after 36 h) | IC50 (BxPC-3 cells; Homo sapiens, BXPC-3, 72 h) [µM] | Selectivity index (IC50 normal cell line/IC50 cancer cell lines), BxPC-3 (BxPC-3 cells) | Relative Wound Closure (%) 24 h (SW620 cells [3]) | Relative Wound Closure (%) 48 h (SW620 cells [3]) | IC50 (SW620 cells [4]) [µM] | antimigratory effects on SW620 cell line (SW620 cells [2]; 10 nM, after 24 h) | LC50 (in vivo) [µM] | cell proliferation, combined treatment versus radiation alone, HT-29 (HT-29 cells [5]) | antimigratory properties in SW620 cells (SW620 cells [2]; 30 μM, 48 h) | IC50 (MRC-5 cells) [µM] | IC50 (BxPC-3 cells) [µM]
1 | COc1ccc2c(c1)c(CC(=O)O)c(C)n2C(=O)c1ccc(Cl)cc1 [Indomethacin, reference compound] | 79.8 ± 5.9 | 1 | 89.5 ± 4.45 | 0.89 | 60.4 ± 4.27 | 1.32 | significantly decreased the migratory ability | 85.9 ± 2.58 | 0.93 |  |  |  |  |  |  |  |  | 
2 | CC(=O)N(O)C(C)c1ccc(CC(C)C)cc1 (stereo not drawn) [Compound 11] | 57.1 ± 3.8 | 1 | 84.1 ± 3.43 | 0.68 | 82 ± 2.34 | 0.70 |  | 63 ± 3.8 | 0.91 |  |  |  |  |  |  |  |  | 
3 | COc1ccc2c(c1)c(CNC(=O)NO)c(C)n2C(=O)c1ccc(Cl)cc1 [Compound 1] | 9.68 ± 2.34 | 1 | 9.78 ± 0.68 | 0.99 | 4.97 ± 0.78 | 1.95 |  | 12.8 ± 1.11 | 0.76 | 3.20% and 3.20 ± 0.99% | 5.08% and 5.08 ± 2.46% | 215 ± 4.9 |  |  |  |  |  | 
4 | COC(=O)C(Cc1cnc[nH]1)NC(=O)c1cc(C(C)(C)C)c(O)c(C(C)(C)C)c1 (stereo not drawn) [Compound 4] | 35.4 ± 4.14 | 1 | 42.3 ± 2.57 | 0.84 | 29.5 ± 5.23 | 1.20 |  | 24.7 ± 2.01 | 1.43 |  |  |  |  |  |  |  |  | 
5 | CC(C)(C)c1cc(/C=C2\SC(=S)N(N)C2=O)cc(C(C)(C)C)c1O [Compound 13] | 57.1 ± 3.8 | 1 | 12.4 ± 1.95 | 4.60 | 2.21 ± 0.12 | 25.84 |  | 1.8 ± 0.1 | 31.72 |  |  |  |  |  |  |  |  | 
6 | CC(C(=O)O)c1ccc(-c2ccccc2)c(F)c1 (stereo not drawn) [Flurbiprofen, reference compound] | > 100 |  | > 100 |  | > 100 |  |  | > 100 |  |  |  |  | significant antimigratory effects |  |  |  |  | 
7 | CCOc1ccccc1NC(=O)N(C)C [Compound 8] | > 100 |  | > 100 |  | > 100 |  |  | > 100 |  |  |  |  |  |  |  |  |  | 
8 | O=C(O)Cc1ccccc1Nc1c(Cl)cccc1Cl [Diclofenac, reference compound] |  |  | 75 ± 3.98 |  | 79.1 ± 3.68 |  |  | 57.2 ± 3.03 |  |  |  |  |  |  |  |  |  | 
9 | CCOc1ccccc1NC(=O)Nc1ccc([N+](=O)[O-])cc1 [Compound 10] | 18.7 ± 0.98 | 1 | 7.08 ± 0.3 | 2.64 | 9.3 ± 0.38 | 2.01 |  | 6.05 ± 1.68 | 3.09 |  |  |  |  |  |  |  |  | 
10 | CC(c1cc2ccccc2s1)N(O)C(N)=O (stereo not drawn) [Zileuton, reference compound] | 95.74 ± 0.94 | 1 | 78.5 ± 2.28 | 1.22 | 44.9 ± 3.48 | 2.13 |  | 74.9 ± 4.1 | 1.28 |  |  |  |  | 4.41 |  |  |  | 
11 | COC(=O)CNC(=O)c1cc(C(C)(C)C)c(O)c(C(C)(C)C)c1 [Compound 5] | > 100 |  | 81.6 ± 2.77 | > 1.22 | 51.7 ± 1.78 | > 1.94 |  | 41.2 ± 2.88 | > 2.43 | 7.12 ± 1.43% | 9.11 ± 0.27% | 132 ± 3.5 |  |  | significantly inactivated HT-29 cells |  |  | 
12 | Cc1ccc(-c2cc(C(F)(F)F)nn2-c2ccc(S(N)(=O)=O)cc2)cc1 [celecoxib] |  |  |  |  |  |  |  |  |  |  |  |  |  |  |  | comparable efficacy to compounds 1, 2, 3 and 5 |  | 
13 | CN(C)C(=O)Nc1ccccc1C(=O)O [Compound 9] | > 100 |  | > 100 |  | > 100 |  |  | > 100 |  |  |  |  |  |  |  |  |  | 
14 | COc1ccc2cc(C(C)N(O)C(C)=O)ccc2c1 (stereo not drawn) [Compound 12] | > 100 | 1 | > 100 |  | > 100 |  |  | > 100 | 0.83 |  |  |  |  |  |  |  | 63.6 ± 9.04 | 76.7 ± 5.54
15 | CC(NC(=O)NO)c1ccc(-c2ccccc2)c(F)c1 (stereo not drawn) [Compound 2] | 69.1 ± 3.07 | 1 | 82.4 ± 4.25 | 0.84 | 64.8 ± 2.76 | 1.07 |  | 48.7 ± 4.6 | 1.42 | 7.47 ± 2.14% | 11.61 ± 3.06% | 386 ± 11.8 |  |  |  |  |  | 

— article PMC11207729, “Unveiling Anticancer Potential of COX-2 and 5-LOX Inhibitors: Cytotoxicity, Radiosensitization Potential and Antimigratory Activity against Colorectal and Pancreatic Carcinoma” (Pharmaceutics, 2024)
